From ChEMBL document CHEMBL1131057, “Peptidomimetic growth hormone secretagogues. Design considerations and therapeutic potential” (J Med Chem, 1998)
Where a SMILES comes first, the peptide text is derived from it. [ ]: non-standard residue; d: D form. dTrp(2-Me) = Cc1[nH]c2ccccc2c1C[C@@H](N)C(=O)O; d2Nal = N[C@H](Cc1ccc2ccccc2c1)C(=O)O; 3Amb = NCc1cccc(C(=O)O)c1; GABA = NCCCC(=O)O

Assays:
Rattus norvegicus [1] = species: Rattus norvegicus; assay: compound was evaluated for GH release in the rat pituitary cell culture assay; type: functional; conditions: Pituitary gland cell
Rattus norvegicus [2] = assay: Compound was tested for effective dose rquired for GH release following iv administration to 4-week old anesthetized Sprague-Dawley rats; type: functional
[3] = biological target: T1, Growth hormone secretagogue receptor type 1 (Homo sapiens, UniProt Q92847); assay: Compound was evaluated for GH release for effect on human GH secretagogue receptor; type: functional
T1 sequence (Q92847 whole entry): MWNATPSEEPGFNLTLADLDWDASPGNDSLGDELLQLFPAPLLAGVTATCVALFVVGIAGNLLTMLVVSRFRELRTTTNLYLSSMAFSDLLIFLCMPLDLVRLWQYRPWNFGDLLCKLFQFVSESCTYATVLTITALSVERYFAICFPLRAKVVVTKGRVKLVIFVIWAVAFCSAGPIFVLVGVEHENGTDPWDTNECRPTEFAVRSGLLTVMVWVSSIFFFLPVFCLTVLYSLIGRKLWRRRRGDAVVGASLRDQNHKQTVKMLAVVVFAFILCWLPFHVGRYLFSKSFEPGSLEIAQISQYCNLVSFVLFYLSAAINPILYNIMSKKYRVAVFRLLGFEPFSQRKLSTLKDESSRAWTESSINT

Rattus norvegicus [4] = species: Rattus norvegicus; assay: Compound measured for stimulated GH release; type: functional, organism-based
[5] = biological target: T1, Growth hormone secretagogue receptor type 1; assay: Inhibitory concentration (biotinylated probe) is evaluated for [35S]- MK-0677 binding
Rattus norvegicus [6] = species: Rattus norvegicus; assay: In Vitro evaluation for growth hormone release from the pituitary incubates; type: functional
Rattus norvegicus [7] = species: Rattus norvegicus; assay: In vitro efficacy was evaluated for growth hormone release
Oxytocin receptor = biological target: T2, Oxytocin receptor (Homo sapiens, UniProt P30559); assay: Antagonistic activity against Oxytocin receptor; type: functional
T2 sequence (P30559 whole entry): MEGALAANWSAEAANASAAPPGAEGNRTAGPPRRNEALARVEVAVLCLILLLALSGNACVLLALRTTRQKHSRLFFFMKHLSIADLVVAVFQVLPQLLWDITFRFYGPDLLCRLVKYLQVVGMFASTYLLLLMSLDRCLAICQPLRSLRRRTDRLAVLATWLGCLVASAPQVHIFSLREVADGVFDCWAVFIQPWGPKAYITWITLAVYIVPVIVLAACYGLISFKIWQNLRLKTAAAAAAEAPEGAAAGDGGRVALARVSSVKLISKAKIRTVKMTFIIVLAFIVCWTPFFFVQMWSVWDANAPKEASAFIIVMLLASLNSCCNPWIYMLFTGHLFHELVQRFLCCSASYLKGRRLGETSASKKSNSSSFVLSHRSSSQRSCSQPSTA

Rattus norvegicus [8] = species: Rattus norvegicus; assay: compound was evaluated for GH release in rat; type: functional
[9] = Clearance rate is evaluated rats; type: ADME, organism-based; conditions: rat, in vivo; read-out: Clearance rate
[10] = Compound was evaluated for half-life in humans; type: ADME, organism-based; conditions: human, in vivo
Canis familiaris [11] = assay: Compound was tested for minimum effective dose in dogs through iv dose; type: functional; conditions: Canis lupus familiaris
[12] = Half-life was evaluated in rats; type: ADME, organism-based; conditions: rat, in vivo
[13] = Compound was evaluated for oral bioavailability in human; type: ADME, organism-based; conditions: in vivo
Rattus norvegicus [14] = assay: Compound was evaluated for GH releasing properties after iv administration to infant rats; type: functional, organism-based
Canis familiaris [15] = assay: Loss of body weight in dog is evaluated after compound was administered perorally to dog at a dose 5 mg/kg, once daily (control (wt) = 1.13+/-0.19); type: functional, Canis lupus familiaris; conditions: route oral
Sus scrofa [16] = species: Sus scrofa; assay: Compound was measured for IGF-1 increases in swine on days 4, 7, 10, and 14 approximately; type: functional
Sus scrofa [17] = species: Sus scrofa; assay: Compound was measured for elevated mean plasma IGF-1 (insulin like growth factor) concentrations in Swine; type: functional, organism-based
[18] = The intrinsic potency studied extensively in animals; type: functional
[19] = Compound was evaluated percentage of Oral bioavailability in dogs; type: ADME, organism-based, Canis lupus familiaris; conditions: dog, in vivo
[20] = In vitro efficacy was evaluated for growth hormone release
Rattus norvegicus [21] = species: Rattus norvegicus; assay: Compound was tested for GH releasing from cultured rat pituitary cells (maximal increase in 15 min); type: functional, Pituitary gland cell
[22] = Compound was evaluated for the half-life in rats; type: ADME, organism-based; conditions: rat, in vivo
Rattus norvegicus [23] = species: Rattus norvegicus; assay: compound was evaluated for GH release in the rat; type: functional, organism-based
[24] = Compound was evaluated for the systemic clearance rate in rats; type: ADME, organism-based; conditions: rat, in vivo; read-out: Clearance rate
[25] = Half-life period measured in dog; type: ADME, organism-based, Canis lupus familiaris; conditions: in vivo
[26] = Clearance rate was evaluated in rats; type: ADME, organism-based; conditions: rat, in vivo; read-out: Clearance rate
Rattus norvegicus [27] = assay: Compound was measured as maximal GH release which showed iv potency and efficacy; type: functional, organism-based

Question: Which results are given for `CN(C)S(=O)(=O)c1ccc2c(c1)CN(C(=O)[C@@H](Cc1c[nH]c3ccccc13)NC(=O)C(C)(C)N)CC2`?
Answer: EC50 (Rattus norvegicus [1]): 30 nM; ED50 (Rattus norvegicus [2]): 3 mg/kg

Question: With `NC(=O)CN(CCc1ccccc1)C(=O)[C@@H](Cc1ccc2ccccc2c1)NC(=O)[C@@H](Cc1ccc2ccccc2c1)NC(=O)C1CCNCC1` as the molecule, how does the EC50 [3] read?
Answer: The EC50 was 0.34 nM.

Question: Which EC50 (Rattus norvegicus [4]) does the source give for `CC(C)(N)C(=O)N[C@H](COCc1ccccc1)C(=O)N1CCC2(CC1)CN(S(=O)(=O)CC(=O)NCCCCCCNC(=O)CCCC[C@@H]1SCC3NC(=O)NC31)c1ccccc12` (stereo partly specified) here?
Answer: Its EC50 is 2.5 nM.

Question: What about the IC50 [5] of the same molecule?
Answer: Its IC50 is 0.2 nM.

Question: Which Concentration (Rattus norvegicus [6]) does the source give for `CSCC[C@@H](NC(=O)[C@H](Cc1ccccc1)NC(=O)CNC(=O)[C@H](Cc1ccccc1)NC(=O)[C@@H](N)Cc1ccc(O)cc1)C(N)=O` here?
Answer: Its Concentration is 10 µg/mL.

Question: Which EC50 (Rattus norvegicus [1]) does the source give for `NCCCC[C@H](NC(=O)[C@@H](Cc1ccccc1)NC(=O)[C@@H](Cc1ccc2ccccc2c1)NC(=O)c1cccc(CN)c1)C(N)=O` (H-[3Amb][d2Nal][dF]K-NH2) here?
Answer: The EC50 was 7 nM.

Question: With `C[C@@H](O)CN1CCC[C@@H](C(=O)NC2CC3CCC2(CS(=O)(=O)N2CCC4(CCc5ccccc54)CC2)C3(C)C)C1` (stereo partly specified) as the molecule, how does the EC50 (Rattus norvegicus [7]) read?
Answer: Its EC50 is 90 nM.

Question: What about the IC50 (Oxytocin receptor) of the same molecule?
Answer: The IC50 was 130 nM.

Question: With `Cc1[nH]c2ccccc2c1C[C@@H](NC(=O)[C@@H](N)Cc1c[nH]cn1)C(=O)N[C@@H](C)C(=O)N[C@@H](Cc1c[nH]c2ccccc12)C(=O)N[C@H](Cc1ccccc1)C(=O)N[C@@H](CCCCN)C(N)=O` [EXAMORELIN] (H-H[dTrp(2-Me)]AW[dF]K-NH2) as the molecule, how does the Activity (Rattus norvegicus [8]) read?
Answer: The Activity was 104 ng/mL.

Question: Which results are given for `CC1(C)C2CCC1(CS(=O)(=O)N1CCC3(CCc4ccccc43)CC1)C(NC(=O)C1CCCNC1)C2` [L-368112]?
Answer: EC50 (Rattus norvegicus [7]): 300 nM; IC50 (Oxytocin receptor): 68 nM

Question: Which results are given for `C[C@H](NC(=O)[C@@H](Cc1c[nH]c2ccccc12)NC(=O)[C@@H](N)Cc1c[nH]cn1)C(=O)N[C@@H](Cc1c[nH]c2ccccc12)C(=O)N[C@H](Cc1ccccc1)C(=O)N[C@@H](CCCCN)C(N)=O` (H-H[dW]AW[dF]K-NH2)?
Answer: clearance [9]: 25 mL/min/kg; half-life [10]: 20 min; MED (Canis familiaris [11]): 0.01 mg/kg; half-life [12]: 22 min; bioavailability [13]: 0.3%

Question: With `Cc1[nH]c2ccccc2c1C[C@@H](NC(=O)CCCN)C(=O)N[C@H](Cc1ccc2ccccc2c1)C(=O)N[C@@H](Cc1ccccc1)C(=O)N[C@@H](CCCCN)C(N)=O` (H-[GABA][dTrp(2-Me)][d2Nal]FK-NH2) as the molecule, how does the Concentration (Rattus norvegicus [14]) read?
Answer: Its Concentration is 198 ng/mL.

Question: With `CC(C)(N)C(=O)N[C@H](CCCc1ccccc1)C(=O)N1CCC2(CC1)CN(S(C)(=O)=O)c1ccccc12` as the molecule, how does the Body weight (Canis familiaris [15]) read?
Answer: Its Body weight is 0.21 kg.

Question: And the Increase (Sus scrofa [16])?
Answer: Its Increase is 60%.

Question: And the Plasma concentration (Sus scrofa [17])?
Answer: The Plasma concentration was 62%.

Question: What about the EC50 [18] of the same molecule?
Answer: The EC50 was 1.5 nM.

Question: What does the source list for `CC(C)(N)CC(=O)N[C@@H]1CCc2ccccc2N(Cc2ccc(-c3ccccc3-c3nn[nH]n3)cc2)C1=O`?
Answer: bioavailability [19]: < 5%; EC50 [20]: 60 nM; Max (Rattus norvegicus [21]): 300%

Question: With `C[C@H](NC(=O)[C@@H](Cc1ccc2ccccc2c1)NC(=O)[C@@H](C)N)C(=O)N[C@@H](Cc1c[nH]c2ccccc12)C(=O)N[C@H](Cc1ccccc1)C(=O)N[C@@H](CCCCN)C(N)=O` [PRALMORELIN] (H-[dA][d2Nal]AW[dF]K-NH2) as the molecule, how does the half-life [22] read?
Answer: The half-life was 9 min.

Question: What about the EC50 (Rattus norvegicus [23]) of the same molecule?
Answer: Its EC50 is 3 nM.

Question: And the clearance [24]?
Answer: The clearance was 23 mL/min/kg.

Question: Which EC50 (Rattus norvegicus [1]) does the source give for `C[C@@H]1CNC(C)(C)CC(=O)N[C@@H]2CCc3ccccc3N(Cc3ccc(cc3)-c3ccccc3C(=O)NCCCC(=O)O1)C2=O` here?
Answer: The EC50 was 21 nM.

Question: With `C[C@@H](O)CNC(C)(C)CC(=O)N[C@@H]1CCc2ccccc2N(Cc2ccc(-c3ccccc3-c3nn[nH]n3)cc2)C1=O` [L-692585] as the molecule, how does the EC50 (Rattus norvegicus [7]) read?
Answer: Its EC50 is 3 nM.

Question: For `CCOC(=O)[C@]1(Cc2ccccc2)CCCN(C(=O)[C@@H](Cc2c[nH]c3ccccc23)NC(=O)C(C)(C)N)C1`, which EC50 (Rattus norvegicus [1]) is on record?
Answer: The EC50 was 1.6 nM.

Question: Which EC50 (Rattus norvegicus [1]) does the source give for `CCOC(=O)[C@H]1CC2(CCN(C(=O)[C@@H](CCCc3ccccc3)NC(=O)C(C)(C)N)CC2)c2ccccc21` here?
Answer: Its EC50 is 1.9 nM.

Question: What about the half-life [25] of the same molecule?
Answer: The half-life was 102 min.

Question: What does the source list for `C[C@H](NC(=O)[C@@H](Cc1c[nH]c2ccccc12)NC(=O)CCc1c[nH]cn1)C(=O)N[C@@H](Cc1c[nH]c2ccccc12)C(=O)N[C@H](Cc1ccccc1)C(=O)N[C@H](CO)CCCCN`?
Answer: clearance [26]: 39 mL/min/kg; EC50 (Rattus norvegicus [27]): 5 nM; half-life [12]: 11 min
